Experimental data reported in US6486098B1, “Herbicidal phenoxypropionic acid N-alkyl-N-2-fluorophenyl amide compounds” (Dongbu Hannong Chemical Co. Ltd., priority 1999, dated 2002).

Columns and labels:
[1] = test system: PANDI (Fall panicum); test: Leaf treatment test, fall panicum; type: in vivo, Panicum dichotomiflorum Michx; details: 14 days after treatment
Method: (§1) Seeds of rice, wheat, barley, corn, cotton, barnyard grass, common sorgum, large crabgrass and fall panicum were seeded at a pot with a surface area of 600 cm^2. […] 14 days after the treatment, the degree of damage to the plants was rated in % damage in comparison to the development of untreated control.

[2] = test system: ORYSA (Rice); test: Leaf treatment test, rice; type: in vivo, Oryza sativa L. cv. Dongjin; details: 14 days after treatment
Method: as §1

[3] = test system: ECHCG (Barnyard grass); test: Leaf treatment test, barnyard grass; type: in vivo, Echinochloa crus-galli Beauv. var. caudata Kitagawa; details: leaf treatment at three leaves, 14 days after treatment
Method: as §1

[4] = test system: GOSHI (Cotton); test: Leaf treatment test, cotton; type: in vivo, Gossypium; details: 14 days after treatment
Method: as §1

[5] = test system: Barnyard grass; test: Leaf treatment test, 4 leaves, barnyard grass (Table 7); type: in vivo, Echinochloa crus-galli Beauv. var. caudata Kitagawa
Method: as §1
(§2) Among the compounds of the formula (1), herbicidal activity of the compounds in table 5 is represented in the following table 6 and 7.

[6] = test system: SORBI (Common sorgum); test: Leaf treatment test, common sorgum; type: in vivo, Andropogon sorghum; details: 14 days after treatment
Method: as §1

[7] = test system: ZEAMX (Corn); test: Leaf treatment test, corn; type: in vivo, Zea mays L.; details: 14 days after treatment
Method: as §1

[8] = test system: TRZAW (Wheat); test: Leaf treatment test, wheat; type: in vivo, Triticum aestivum L.; details: 14 days after treatment
Method: as §1

[9] = test system: GLXMA (Soy bean); test: Leaf treatment test, soy bean; type: in vivo, Glycine max (L.) MERR; details: 14 days after treatment
[10] = test system: rice; test: Leaf treatment test, 4 leaves, rice (Table 7); type: in vivo, Oryza sativa L. cv. Dongjin
Method: as §1, §2

[11] = test system: DIGSA (Large crabgrass); test: Leaf treatment test, large crabgrass; type: in vivo, Digitaria Sanguinalis (L.) SCOP; details: 14 days after treatment
Method: as §1

Row | Compound | degree of damage to the plants (% damage) ([1]; treated amount 0.1 kg/ha) [%] | degree of damage to the plants (% damage) ([1]; treated amount 0.4 kg/ha) [%] | degree of damage to the plants (% damage) ([2]; treated amount 0.025 kg/ha) [%] | degree of damage to the plants (% damage) ([2]; treated amount 0.1 kg/ha) [%] | degree of damage to the plants (% damage) ([2]; treated amount 0.4 kg/ha) [%] | degree of damage to the plants (% damage) ([3]; treated amount 0.025 kg/ha) [%] | degree of damage to the plants (% damage) ([3]; treated amount 0.1 kg/ha) [%] | degree of damage to the plants (% damage) ([3]; treated amount 0.4 kg/ha) [%] | degree of damage to the plants (% damage) ([4]; treated amount 0.025 kg/ha) [%] | degree of damage to the plants (% damage) ([4]; treated amount 0.1 kg/ha) [%] | degree of damage to the plants (% damage) ([4]; treated amount 0.4 kg/ha) [%] | degree of damage to the plants (% damage) ([6]; treated amount 0.025 kg/ha) [%] | degree of damage to the plants (% damage) ([6]; treated amount 0.1 kg/ha) [%] | degree of damage to the plants (% damage) ([6]; treated amount 0.4 kg/ha) [%] | degree of damage to the plants (% damage) ([7]; treated amount 0.025 kg/ha) [%] | degree of damage to the plants (% damage) ([7]; treated amount 0.1 kg/ha) [%] | degree of damage to the plants (% damage) ([7]; treated amount 0.4 kg/ha) [%] | degree of damage to the plants (% damage) ([8]; treated amount 0.025 kg/ha) [%] | degree of damage to the plants (% damage) ([8]; treated amount 0.1 kg/ha) [%] | degree of damage to the plants (% damage) ([8]; treated amount 0.4 kg/ha) [%] | also measured
1 | CC(Oc1ccc(Oc2nc3ccc(Cl)cc3o2)cc1)C(=O)N(C)c1ccccc1F (stereo not drawn) [Compound No. 1, 2-[4-(6-Chloro-2-benzoxazoyloxy)-phenoxy]propionic Acid-N-(2-fluorophenyl)-N-methylamide] | 100 | 100 | 0 | 0 | 0 | 90 | 100 | 100 | 0 | 0 | 0 | 100 | 100 | 100 | 0 | 70 | 100 | 0 | 0 | 0 | degree of damage to the plants (% damage) ([1]; treated amount 0.025 kg/ha): 100%; degree of damage to the plants (% damage) ([5]; treated amount 0.016 kg/ha): 75%; degree of damage to the plants (% damage) ([5]; treated amount 0.063 kg/ha): 100%; degree of damage to the plants (% damage) ([5]; treated amount 0.25 kg/ha): 100%; degree of damage to the plants (% damage) ([5]; treated amount 1.0 kg/ha): 100%; degree of damage to the plants (% damage) ([9]; treated amount 0.025 kg/ha): 0%; degree of damage to the plants (% damage) ([9]; treated amount 0.1 kg/ha): 0%; degree of damage to the plants (% damage) ([9]; treated amount 0.4 kg/ha): 20%; degree of damage to the plants (% damage) ([10]; treated amount 0.016 kg/ha): 0%; degree of damage to the plants (% damage) ([10]; treated amount 0.063 kg/ha): 0%; degree of damage to the plants (% damage) ([10]; treated amount 0.25 kg/ha): 0%; degree of damage to the plants (% damage) ([10]; treated amount 1.0 kg/ha): 0%; degree of damage to the plants (% damage) ([11]; treated amount 0.025 kg/ha): 100%; degree of damage to the plants (% damage) ([11]; treated amount 0.1 kg/ha): 100%; degree of damage to the plants (% damage) ([11]; treated amount 0.4 kg/ha): 100%
2 | CC(Oc1ccc(Oc2nc3ccc(Cl)cc3o2)cc1)C(=O)N(C)c1ccc(Cl)cc1F (stereo not drawn) [Compound No. 8] | 0 | 100 | 0 | 0 | 0 | 0 | 0 | 70 | 0 | 0 | 0 | 0 | 70 | 100 | 0 | 0 | 0 | 0 | 0 | 0 | degree of damage to the plants (% damage) ([1]; treated amount 0.025 kg/ha): 0%; degree of damage to the plants (% damage) ([9]; treated amount 0.025 kg/ha): 0%; degree of damage to the plants (% damage) ([9]; treated amount 0.1 kg/ha): 0%; degree of damage to the plants (% damage) ([9]; treated amount 0.4 kg/ha): 0%; degree of damage to the plants (% damage) ([11]; treated amount 0.025 kg/ha): 30%; degree of damage to the plants (% damage) ([11]; treated amount 0.1 kg/ha): 95%; degree of damage to the plants (% damage) ([11]; treated amount 0.4 kg/ha): 100%
3 | CC(Oc1ccc(Oc2nc3ccc(Cl)cc3o2)cc1)C(=O)N(C)c1cc(F)ccc1F (stereo not drawn) [Compound No. 9] | 100 | 100 | 0 | 0 | 20 | 70 | 80 | 80 | 0 | 0 | 0 | 90 | 100 | 100 | 0 | 0 | 100 | 0 | 0 | 0 | degree of damage to the plants (% damage) ([1]; treated amount 0.025 kg/ha): 90%; degree of damage to the plants (% damage) ([9]; treated amount 0.025 kg/ha): 0%; degree of damage to the plants (% damage) ([9]; treated amount 0.1 kg/ha): 0%; degree of damage to the plants (% damage) ([9]; treated amount 0.4 kg/ha): 0%; degree of damage to the plants (% damage) ([11]; treated amount 0.025 kg/ha): 100%; degree of damage to the plants (% damage) ([11]; treated amount 0.1 kg/ha): 100%; degree of damage to the plants (% damage) ([11]; treated amount 0.4 kg/ha): 100%
4 | Cc1ccc(N(C)C(=O)C(C)Oc2ccc(Oc3nc4ccc(Cl)cc4o3)cc2)c(F)c1 (stereo not drawn) [Compound No. 10] | 0 | 70 | 0 | 0 | 0 | 0 | 0 | 80 | 0 | 0 | 0 | 30 | 60 | 100 | 0 | 0 | 0 | 0 | 0 | 0 | degree of damage to the plants (% damage) ([1]; treated amount 0.025 kg/ha): 0%; degree of damage to the plants (% damage) ([9]; treated amount 0.025 kg/ha): 0%; degree of damage to the plants (% damage) ([9]; treated amount 0.1 kg/ha): 0%; degree of damage to the plants (% damage) ([9]; treated amount 0.4 kg/ha): 0%; degree of damage to the plants (% damage) ([11]; treated amount 0.025 kg/ha): 70%; degree of damage to the plants (% damage) ([11]; treated amount 0.1 kg/ha): 95%; degree of damage to the plants (% damage) ([11]; treated amount 0.4 kg/ha): 100%
5 | COc1ccc(N(C)C(=O)C(C)Oc2ccc(Oc3nc4ccc(Cl)cc4o3)cc2)c(F)c1 (stereo not drawn) [Compound No. 11] | 20 | 40 | 0 | 0 | 0 | 0 | 0 | 40 | 0 | 0 | 0 | 0 | 20 | 70 | 0 | 0 | 0 | 0 | 0 | 0 | degree of damage to the plants (% damage) ([9]; treated amount 0.025 kg/ha): 0%; degree of damage to the plants (% damage) ([9]; treated amount 0.1 kg/ha): 0%; degree of damage to the plants (% damage) ([9]; treated amount 0.4 kg/ha): 0%; degree of damage to the plants (% damage) ([11]; treated amount 0.025 kg/ha): 95%; degree of damage to the plants (% damage) ([11]; treated amount 0.1 kg/ha): 95%; degree of damage to the plants (% damage) ([11]; treated amount 0.4 kg/ha): 95%
6 | CCOc1ccc(N(C)C(=O)C(C)Oc2ccc(Oc3nc4ccc(Cl)cc4o3)cc2)c(F)c1 (stereo not drawn) [Compound No. 12] | 0 | 0 | 0 | 0 | 00 | 0 | 0 | 30 | 0 | 0 | 0 | 0 | 0 | 30 | 0 | 0 | 0 | 0 | 0 | 0 | degree of damage to the plants (% damage) ([1]; treated amount 0.025 kg/ha): 0%; degree of damage to the plants (% damage) ([9]; treated amount 0.025 kg/ha): 0%; degree of damage to the plants (% damage) ([9]; treated amount 0.1 kg/ha): 0%; degree of damage to the plants (% damage) ([9]; treated amount 0.4 kg/ha): 0%; degree of damage to the plants (% damage) ([11]; treated amount 0.025 kg/ha): 80%; degree of damage to the plants (% damage) ([11]; treated amount 0.1 kg/ha): 100%; degree of damage to the plants (% damage) ([11]; treated amount 0.4 kg/ha): 100%
7 | CCOC(=O)C(C)Oc1ccc(Oc2nc3ccc(Cl)cc3o2)cc1 (stereo not drawn) [control 2, Fenoxaprop-ethyl, reference compound] |  |  |  |  |  |  |  |  |  |  |  |  |  |  |  |  |  |  |  |  | degree of damage to the plants (% damage) ([5]; treated amount 0.016 kg/ha): 95%; degree of damage to the plants (% damage) ([5]; treated amount 0.063 kg/ha): 100%; degree of damage to the plants (% damage) ([5]; treated amount 0.25 kg/ha): 100%; degree of damage to the plants (% damage) ([5]; treated amount 1.0 kg/ha): 100%; degree of damage to the plants (% damage) ([10]; treated amount 0.016 kg/ha): 20%; degree of damage to the plants (% damage) ([10]; treated amount 0.063 kg/ha): 30%; degree of damage to the plants (% damage) ([10]; treated amount 0.25 kg/ha): 70%; degree of damage to the plants (% damage) ([10]; treated amount 1.0 kg/ha): 85%
